Where two headings read alike, the source gives them in different places.
Legend:
[1] = system: bone marrow derived macrophages (BMMφ); experiment: Cytokine ELISA on supernatants of stimulated bone marrow derived macrophages (LPS ± E-IgG)
[2] = system: ERK1/2; experiment: Western blot of ERK activation (phospho-ERK) in macrophages; type: cell-based, mice; settings: macrophages stimulated with LPS 10 ng/ml plus the agent, versus LPS alone
Protocol: FIG. 1 is a Western blot showing the kinetics of MAPK activation in bone marrow derived macrophages (BMMφ) stimulated with (LPS) alone or LPS in combination with E-IgG, an immune complex that ligates the FcγR. BMMφ were stimulated with LPS (10 ng/ml)±E-IgG. Cells were then lysed at the indicated times and equal amounts of whole cell lysates were separated by SDS PAGE and analyzed by Western blotting using phospho-specific Abs to ERK1/2, p38 or JNK. Total ERK1/2 (bottom panel) was used as the loading control.
Western blots. 2×10^6 BMMφper well were plated overnight in 60 mm culture dishes. […]
Cells were lysed at various indicated times and ERK activation was measured by Western Blot using antibodies to phosphorylated ERK (FIG. 9B).
ERK activation was analyzed at the indicated times by Western Blot, using antibodies to phosphorylated ERK.

[3] = system: IL-10 promoter; experiment: ChIP of histone H3 phosphorylation at the IL-10 promoter in stimulated BMMφ; type: cell-based, mice; settings: BMMφ pretreated 30 min with PD98059 10 μM or SB203580 1 μM, then IgG-OVA + LPS for 40 min
Protocol: BMMφ were stimulated with medium (open bars), LPS (solid bars) or E-IgG+LPS (striped bars) for 15 minutes (A), or the indicated times (B) and ChIP assays were carried out as described in Materials and Methods. Immunoprecipitations utilized antibodies specific to phospho-H3 (left panel) or acetyl-H3 (right panel). A. conventional RT-PCR and B. real time PCR were carried out using IL-10 promoter or IL-12p40 promoter specific primers. For real time PCR, samples were normalized to input DNA controls.
Cells were pretreated with PD98059 (10 μM), SB203580 (1 μM) or medium for 30 min then stimulated with medium (open bar), IgG-OVA (dotted bar), LPS (solid bar), or both (striped bars) for 40 min. ChIP analysis was carried out using a phospho-H3 specific Ab. A. Conventional RT-PCR was carried out using IL-10 promoter or IL-12p40 promoter specific primers. B. Real time PCR analysis of samples obtained in A. Samples were normalized to input DNA controls.
FIG. 22 is a graph showing Inhibition of histone modifications by blocking ERK. BMMφ were pre-treated with PD98059 (15 μM) (solid bars) or drug vehicle (open bars) for 1 hour and then stimulated with IC plus LPS (10 ng/mL). Cross-linked chromatin fragments were immunoprecipitated with antibody to phosphorylated histone H3 at Ser 10 or antibody to Sp1. The DNA was purified and analyzed for the presence of IL-10 promoter sequences corresponding to nucleosome −2 by QRT-PCR. The data were plotted graphically as the percentage change relative to drug vehicle (IC/LPS) at 30 min post-stimulation for histone H3 phosphorylation, and at 45 min post-stimulation for Sp1 recruitment. One representative from two independent experiments is presented.
Chromatin immunoprecipitation (ChIP). ChIPs were carried out using the ChIP Assay kit following the manufacturer's protocol (Upstate USA, Inc., Lake Placid, N.Y.). Briefly, 1×10^6 BMMφ were plated overnight in 6-well plates. Cells were stimulated as described in Figure Legends then fixed for 10 min at 37° C. in paraformaldehyde (1% final concentration). […]

[4] = system: BMMφ; experiment: Cytokine ELISA (IL-10, IL-12) after HDAC inhibitor treatment of BMMφ stimulated with LPS+IC; type: cell-based, mice; settings: TSA added to BMMφ for 1 hr, washed, then 10 ng/ml LPS+IC for 6 hrs
Protocol: FIG. 21 is a graph showing cytokine production following histone deacetylation. TSA was added to BMMφ for 1 hr and the cells were then washed with warmed medium before stimulation with 10 ng/ml LPS+IC. After LPS+IC stimulation for 6 hrs, the supernatants were collected and IL-10 and IL-12 were measured by ELISA. Results shown are one representative from two independent experiments conducted in triplicate (mean±SD).
To further examine histone acetylation, macrophages were treated with increasing doses of the HDAC inhibitor, TSA, prior to stimulation. IL-10 levels were measured 6 hrs later. […] This observation is consistent with the hypothesis that an increase in histone H3 acetylation was not a pre-requisite for IL-10 gene transcription following stimulation by LPS+IC.

CCCCCCCCCCCCCC(=O)O[C@@H]1[C@@H](C)[C@@]2(O)[C@@H](C=C(CO)C[C@]3(O)C(=O)C(C)=C[C@@H]23)[C@@H]2C(C)(C)[C@]12OC(C)=O [PMA, phorbol 12-myristate 13-acetate]
IL-10 production (ELISA) of LPS-stimulated macrophages in presence of the ERK activator [1]: induced | ERK activation (phosphorylated ERK, Western blot) [2]: activated

C[S+]([O-])c1ccc(-c2nc(-c3ccncc3)c(-c3ccc(F)cc3)[nH]2)cc1 (centres unmarked) [SB203580]
IL-10 secretion (ELISA) ([1]; BMMφ pretreated 30 min with PD98059 10 μM, SB203580 1 μM or JNK inhibitory peptide 1 μM, then LPS 10 ng/ml ± E-IgG, supernatants after 20 h): substantial inhibition | IL-12 (p40) production (ELISA) ([1]; BMMφ pretreated 30 min with inhibitor, then LPS 10 ng/ml ± E-IgG, 20 h): Neither of these inhibitors decreased | LPS-induced IL-10 production ([1]; BMMφ, LPS 10 ng/ml alone, 20 h, inhibitor pretreatment or 100 nM siRNA): prevented | histone H3 phosphorylation at the IL-10 promoter induced by immune complex (ChIP) [3]: decreasing it substantially, but not reducing it to background levels

CC(/C=C/C(=O)NO)=C\[C@@H](C)C(=O)c1ccc(N(C)C)cc1 [TSA, Trichostatin A]
IL-10 production (ELISA) [4]: failed to influence | IL-12 production (ELISA) [4]: substantially inhibit

B1: CSF-1: colony stimulating factor-1, an ERK activating agent identified by the screening method (protein, UniProt P09603 33-554, looked up)
Macrophage colony-stimulating …: EEVSEYCSHMIGSGHLQSLQRLIDSQMETSCQITFEFVDQEQLKDPVCYLKKAFLLVQDIMEDTMRFRDNTPNAIAIVQLQELSLRLKSCFTKDYEEHDKACVRTFYETPLQLLEKVKNVFNETKNLLDKDWNIFSKNCNNSFAECSSQDVVTKPDCNCLYPKAIPSSDPASVSPHQPLAPSMAPVAGLTWEDSEGTEGSSLLPGEQPLHTVDPGSAKQRPPRSTCQSFEPPETPVVKDSTIGGSPQPRPSVGAFNPGMEDILDSAMGTNWVPEEASGEASEIPVPQGTELSPSRPGGGSMQTEPARPSNFLSASSPLPASAKGQQPADVTGTALPRVGPVRPTGQDWNHTPQKTDHPSALLRDPPEPGSPRISSLRPQGLSNPSTLSAQPQLSRSHSSGSVLPLGELEGRRSTRDRRSPAEPEGGPASEGAARPLPRFNSVPLTDTGHERQSEGSFSPQLQESVFHLLVPSVILVLLAVGGLLFYRWRRRSHQEPQRADSPLEQPEGSPLTQDDRQVELPV
IL-10 production (ELISA) of LPS-stimulated macrophages in presence of the ERK activator ([1]; LPS plus agent versus LPS alone, CSF-1 100 ng/ml added simultaneously with LPS, IL-10 measured 20 hrs later): induce more IL-10 | IL-10 induction by the agent on its own ([1]; macrophages without inflammatory stimulus): does not induce IL-10 on its own | ERK activation (phosphorylated ERK, Western blot) [2]: activated

Reference: US7524487B2, “Compositions and methods for modulating interleukin-10” (University of Maryland, priority 2005, dated 2009)
